In PMC11791359, “A select inhibitor of MORC2 encapsulated by chimeric membranecoated DNA nanocage target alleviation TNBC progression” (Materials Today Bio, 2025):
Entries after “also recorded” stand apart in the source; their conditions may differ. Residues, ends and D or L forms follow the SMILES beside them. *: point of attachment. Cbz = O=C(OCc1ccccc1)*; CH2F = FC*

How the values were obtained:
[1] = tested on: phosphotyrosine STAT3 (p-STAT3); test: Western blot of p-STAT3 in TNBC cells; assay type: cell-based, human
Procedure: Disruption of the IL6/STAT3 signaling pathway can induce cell cycle arrest and apoptosis, which may contribute to the tumor cell death observed in our study following Angoline treatment. Thus, WB analysis was performed to verify our hypothesis. […] These changes were also observed in tumor-bearing mice treated with Angoline (Fig. 3G). Thus, Angoline may also killing the TNBC cells by inhibiting the IL6/STAT3 signaling pathway.
TNBC cells were inoculated in 10-cm plates with 50–60% confluence and incubated for 24 hours. Then, after cleaning the cells with PBS three times, the total proteins of cells were harvested by adding the RIPA lysis buffer and 1% Phenylmethanesulfonyl Fluoride (PMSF) into the plates and scraping off the lysed cells. The total proteins were calculated by the BCA protein estimation assay and were isolated by 10% SDS‒PAGE. The protein was transferred onto the PVDF membrane and then blocked with 5% skim milk powder for 2 hours. The protein bands were probed with corresponding antibodies and incubated at 4 °C overnight. Then, the secondary antibodies were added and incubated 1 h at room temperature. Finally, the membranes were detected by the enhanced chemiluminescence detection system.

[2] = tested on: IL6/STAT3 signaling pathway; design: method as in PMID 24863036; settings: cited from earlier work
MCF-10A cells = assay type: cell-based, human
Procedure: Furthermore, the toxicity and side effects of PMD (Angoline) were evaluated through a comprehensive series of experiments. Firstly, normal breast epithelial cells (MCF-10A) were used to assess drug toxicity. […] Furthermore, we tested the immune-promoting cytokines, such as TNF-α, IL-1β and IL-6.

[3] = tested on: primary TNBC cell xenograft tumors; test: In vivo antitumor efficacy, primary TNBC xenograft; design: species or system BALB/c nude mice
Procedure: Xenograft tumor models were established by injecting primary TNBC cells under the skin of BALB/c nude mice. Then, one week after implantation, the mice were administered with normal saline, Angoline, PMD and PMD (Angoline) respectively via tail vein injection every 3 days. Also, the tumor volume in mice was measured every three days. […] Finally, all mice were sacrificed three weeks later and xenografts were removed. […] Additionally, significant differences in tumor weight were observed among the four groups (Fig. […]). […] Thus, we performed immunofluorescence staining to analyze the expression of Ki-67 in different groups. […] Furthermore, TUNLE staining was performed to evaluate the apoptosis of tumors treated with different drugs (Fig. 5E). […] PMD(Angoline) was prepared by encapsulating Angoline into tDNAn following the assembly steps mentioned above. Tumor-bearing mice were established using primary TNBC cells obtained from patients, following the methods described in the animal assessment section. Then, those mice were intravenously administrated with saline, Angoline, PMD and PMD(Angoline) every 3 days, respectively. Meanwhile, the tumor volume and mice weight were continuously monitored every 3 days. Ultimately, the mice were sacrificed after three weeks to obtain the tumors and vital organs (heart, liver, spleen, lung and kidney). Ki-67 expression was detected by immunofluorescence to determine the tumor growth in different groups. Also, HE staining was used to determine the damage of different drugs to important organs.

[4] = Pharmacokinetic study, single intravenous injection; design: species or system Sprague-Dawley (SD) rats; settings: Sprague-Dawley, rat, in vivo
Procedure: A pharmacokinetic (PK) study was performed to assess whether PMD could improve Angoline's systemic circulation and extend its half-life. Following a single intravenous injection of various formulations into Sprague-Dawley (SD) rats, blood samples were collected at predetermined time points and analyzed using HPLC. As illustrated in Fig. S19A and summarized in Table 1, the plasma concentration-time curves and PK parameters are presented. […] Furthermore, the data obtained from the area under the concentration-time curve (AUC) further confirmed the enhanced PK properties. Thus, the biomimetic nanodrug delivery system (PMD) confers Angoline with enhanced PK properties, attributed to its high stability and sustained drug release kinetics.

MORC2 protein = molecular target: T1, MORC2 protein (Homo sapiens, UniProt Q9Y6X9); test: SPR molecular interaction, MORC2 protein (WT); assay type: binding
T1 construct: 6xHis; made in house; host or cells: Escherichia coli BL21
T1 sequence (Q9Y6X9 1-1032): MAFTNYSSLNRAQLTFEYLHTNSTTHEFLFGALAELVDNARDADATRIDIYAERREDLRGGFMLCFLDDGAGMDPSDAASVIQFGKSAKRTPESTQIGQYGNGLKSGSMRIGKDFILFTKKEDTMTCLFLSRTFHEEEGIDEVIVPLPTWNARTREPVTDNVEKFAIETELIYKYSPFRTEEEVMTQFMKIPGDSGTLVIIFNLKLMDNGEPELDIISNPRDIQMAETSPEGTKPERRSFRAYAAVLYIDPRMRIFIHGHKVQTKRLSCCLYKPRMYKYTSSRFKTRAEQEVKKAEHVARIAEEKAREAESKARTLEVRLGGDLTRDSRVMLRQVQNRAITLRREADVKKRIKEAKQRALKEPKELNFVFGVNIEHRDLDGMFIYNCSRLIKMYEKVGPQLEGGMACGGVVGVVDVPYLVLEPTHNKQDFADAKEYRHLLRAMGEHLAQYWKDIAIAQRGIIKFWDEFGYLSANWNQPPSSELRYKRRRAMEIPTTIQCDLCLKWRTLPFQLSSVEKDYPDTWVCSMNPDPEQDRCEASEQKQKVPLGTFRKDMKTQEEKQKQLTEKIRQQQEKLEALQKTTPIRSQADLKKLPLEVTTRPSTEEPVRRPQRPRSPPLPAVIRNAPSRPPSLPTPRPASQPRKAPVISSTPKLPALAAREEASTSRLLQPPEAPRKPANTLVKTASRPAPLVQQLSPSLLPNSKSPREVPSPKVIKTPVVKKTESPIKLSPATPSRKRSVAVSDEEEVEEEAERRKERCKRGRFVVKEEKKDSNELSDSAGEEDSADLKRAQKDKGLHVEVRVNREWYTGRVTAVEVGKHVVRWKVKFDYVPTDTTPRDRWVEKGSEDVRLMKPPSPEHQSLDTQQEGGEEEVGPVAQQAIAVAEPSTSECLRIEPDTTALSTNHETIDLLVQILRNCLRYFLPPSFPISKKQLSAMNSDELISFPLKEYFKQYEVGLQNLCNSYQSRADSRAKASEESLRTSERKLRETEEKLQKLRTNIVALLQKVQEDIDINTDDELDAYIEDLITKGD
Procedure: Topscience biological small molecule compound library was used to virtually screen out the potential small molecules by computer molecular docking. […] Then, a series of experiments were conducted to evaluate the binding ability between small molecule compounds and MORC2 protein. First, the optimal conditions for purification of MORC2 protein were investigated by univariate optimization method. Protein induction experiments were conducted under varying concentrations of IPTG (0 mM, 0.1 mM, 0.2 mM, 0.5 mM, 0.8 mM, 1 mM), temperature gradients (16 °C, 22 °C, 29 °C, 37 °C), and induction time (3 h, 6 h, 8 h, 10 h, 12 h). Finally, at 0.1 mM IPTG concentration, especially at 22 °C for 8 h, MORC2 protein expression reached the optimal level, which was verified by Coomassie blue staining (Figs. S7A–C). We cleared the other proteins by Binding/Wash Buffer 3 times and eluted the MORC2 protein with imidazole at 40 mM concentration to extract the high purity MORC2 protein (Fig. S7D). MORC2 protein with high purity was obtained according to the above conditions and verified by Coomassie blue staining (Fig. S7E). Then, surface plasmon resonance molecular interaction experiment was performed to detect the binding ability between small molecule compounds and MORC2 protein. […] Also, the binding strength between MORC2 and Angoline was dose-dependent on the concentration of Angoline (Fig. 2C). […]

TNBC cells [5] = test: Cell cycle by flow cytometry; assay type: cell-based, human; settings: TNBC cells after Angoline treatment
Procedure: (§1) The treated cells were digested with pancreatic enzymes and then were collected and washed with PBS. The cells were immobilized with pre-cooled 70% ethanol at 4 ℃ for 12-24 hours, and then centrifuged, washed, and suspended to ensure uniform cell dispersion. Propyridine iodide staining solution was added to each cell sample and incubated without light at 37 ℃ for 30 minutes. Subsequently, the labeled cells were subjected to cell cycle analysis using flow cytometer (Beckman Coulter, USA), and the results were processed by FlowJo software. For the apoptosis assay, 1 × 10^5 cells per sample were collected into 1.5 mL centrifuge tubes and were re-suspended with 195 μL Annexin V-FITC binding solution. Then, 5 μL Annexin V-FITC and 10 μL PI dyeing solution were added into every sample to re-suspend the cells and incubated at 20-25 °C for 20 minutes. Flow cytometry was used to detect red fluorescence at 638 nm and green fluorescence at 488 nm, and the apoptosis results were analysed by FlowJo software.

TNBC cells [6] = test: Apoptosis by flow cytometry (Annexin V-FITC/PI); assay type: cell-based, human
Procedure: as §1

MDA-MB-231 cells = test: CCK8 assay, MDA-MB-231; assay type: cell-based, human; settings: CCK8, MDA-MB-231, 24 h
Procedure: (§2) MDA-MB-231 and MDA-MB-468 cells were inoculated on 96-well plates with 5×10^3 cells per well, and then different small molecule drugs were added according to study requirements after the cell culture reached the appropriate density. Twenty-four hours after treatment, CCK-8 reagent was added to each well and incubated for 2 hours. Then, the absorbance of each well was measured at 450 nm using an enzyme-labeler to calculate the relative survival rate of cells.

MDA-MB-468 cells = test: CCK8 assay, MDA-MB-468; assay type: cell-based, human; settings: CCK8, MDA-MB-468, 24 h
Procedure: as §2

4T1 cells = test: CCK8 assay, 4T1; assay type: cell-based, mouse; settings: CCK8, 4T1
Procedure: CCK8 assay was performed to confirm the optimal killing concentration of Angoline on TNBC cells (MDA-MB-231, MDA-MB-468, and 4T1) in vitro. […] Thus, we further verified our speculation by detecting the cell viability and apoptosis rate of TNBC cells treated with Angoline and/or apoptosis inhibitor (Z-VAD-FMK). As expected, the toxic effect of Angoline on TNBC cells was reduced by Z-VAD-FMK (Fig. 2F). […] Also, YO-PRO-1 staining confirmed that the proportion of apoptotic cells was reduced when Z-VAD-FMK was added in the Angoline treated group (Fig. 2H). […] While, the detailed pro-apoptotic mechanism needs to be further elucidated.

neutrophils = test: Phagocytosis by neutrophils (fluorescence microscopy); assay type: cell-based, human; settings: incubated 4 hours
[7] = tested on: TNBC-bearing BALB/c nude mice; settings: mouse, in vivo
[8] = tested on: TNBC-bearing BALB/c nude mice; test: In vivo distribution and tumor uptake in TNBC-bearing mice; settings: tail vein injection, fluorescent in vivo imaging
primary TNBC cells = test: Uptake by primary TNBC cells (fluorescence microscopy); assay type: cell-based, human; settings: incubated 6 hours

Question: Which results are given for `COc1ccc2c(c1OC)C(OC)N(C)c1c-2ccc2cc3c(cc12)OCO3` (stereo not shown) [Angoline]?
Answer: level of p-STAT3 [1]: significantly reduced; suppression of IL6/STAT3 signaling pathway [2]: suppress the IL6/STAT3 signaling pathway; toxicity toward MCF-10A cells (MCF-10A cells): neither Angoline nor PMD (Angoline) exhibited toxicity; primary tumor growth (tumor volume) ([3]; tail vein injection every 3 days, three weeks): significant suppression of the primary tumor growth; apoptosis of tumors (TUNEL staining) ([3]; tumor tissue): significantly higher apoptosis rate compared to the groups treated with saline or PMD; proliferation capacity of tumor cell (Ki-67 immunofluorescence) ([3]; tumor tissue): significantly lower in the Angoline group than that in saline or PMD groups, but higher than PMD(Angoline) group; body weight ([3]; tumor-bearing mice, every 3 days): significantly increased; C0 [4]: 3.67 ± 0.28 µg/mL; AUC(0-inf) ([4]; SD rats, single i.v.): 15.4 ± 0.19 µg·h/mL; AUC(0-t) ([4]; SD rats, single i.v.): 13.2 ± 0.32 µg·h/mL; Cmax ([4]; SD rats, single i.v.): 3.41 ± 0.15 µg/mL; MRT ([4]; SD rats, single i.v.): 6.08 ± 0.18 h; clearance ([4]; SD rats, single i.v.): 2.29 mL/min; half-life ([4]; SD rats, single i.v.): 4.15 ± 0.06 h; Kd (MORC2 protein): 0.0233 µM; cell cycle distribution (TNBC cells [5]): higher proportion of TNBC cells remained in S and G2 phases; apoptosis rate (TNBC cells [6]; TNBC cells treated with Angoline): significantly increased; also recorded: dramatically increased; killing effect / inhibitory effect on cell viability (MDA-MB-231 cells): strongest killing effect; also recorded: progressively increased with higher concentrations; killing effect / inhibitory effect on cell viability (MDA-MB-468 cells): strongest killing effect; also recorded: progressively increased with higher concentrations; inhibitory effect on cell viability (4T1 cells): progressively increased with higher concentrations

Question: For `COC(=O)C[C@H](NC(=O)[C@H](C)NC(=O)[C@@H](NC(=O)OCc1ccccc1)C(C)C)C(=O)CF` [Z-VAD-FMK, reference compound] (Cbz-Val-Ala-Asp(OMe)-CH2F), which “effect on the proapoptotic effect of Angoline” value (TNBC cells [6]; TNBC cells, Angoline plus apoptosis inhibitor) is on record?
Answer: Its value is “significantly reduce the proapoptotic effect of Angoline”.

Question: For Rhodamine, which uptake by neutrophils (neutrophils) is on record?
Answer: Its uptake by neutrophils is “neutrophils were entirely covered with red fluorescence”.

Question: And the “uptake in tumor tissue sections” value [7]?
Answer: Its value is “rarely taken up by tumor cells”.

Question: What about the “distribution in tumor-bearing mice” value [8] of the same molecule?
Answer: The value was “rapidly diffused throughout the nude mice and was quickly cleared”.

Question: And the “uptake by primary TNBC cells” value (primary TNBC cells)?
Answer: The value was “rarely taken up by TNBC cells”.
